{
  "source": "paper PMC9656482",
  "about": "“In Vitro and In Vivo Biological Activity of Ruthenium 1,10-Phenanthroline-5,6-dione Arene Complexes” (International Journal of Molecular Sciences, 2022)",
  "key": {"A2780 cells [1]": {"system": "A2780 cells", "assay": "Apoptosis, Annexin V-Alexa Fluor 488/propidium iodide double staining", "assay_type": "cell-based, human", "conditions": "A2780, 48 h, IC50 of the complex", "procedure": "To understand if the loss of cell viability of an A2780 cell incubated with JHOR11 is due to cell apoptosis, cells were incubated with the IC50 of the complex and then double-stained with Annexin V, conjugated with AlexaFluor 488 and with propidium iodide (PI) to discriminate between live cells (unstained), cells in initial apoptosis (green-stained cells), cells in late apoptosis (double-stained cells) and cells in necrosis (red-stained cells).\nThe double staining of the A2780 cells incubated with JHOR11 for apoptosis evaluation followed procedures previously described. Briefly, A2780 cells were seeded on 6-well plates in a density of 2 × 10^5 cells/well, and incubated for 48 h with IC50 JHOR11, 0.1% (v/v) DMSO as vector control, and 3.5 µM cisplatin as positive control. Cells were then detached from the wells and double stained using the dead cell apoptosis kits with Annexin V for flow cytometry (Thermo Fisher Scientific) according to manufacturer’s instructions. The percentage of live cells (unstained), cells in initial apoptosis (stained with annexin V-Alexa Fluor 488), cells in late apoptosis (double stained with annexin V-Alexa Fluor 488 and propidium iodide) or cells in necrosis (stained with propidium iodide) was quantified using an Attune acoustic focusing flow cytometer and respective software (Thermo Fisher Scientific)."}, "[2]": {"system": "HCT116 cells injected into zebrafish embryos", "assay": "Zebrafish embryo xenograft assay", "assay_type": "in vivo", "conditions": "80 μM in embryo water from 1 dpi, read at 4 dpi", "procedure": "HCT116 human colorectal cancer cell line was incubated in standard conditions (37 °C and 5% CO2) until a confluence of 80% was reached. Afterwards, the cells were concentrated and labelled with DiI and injected into the circulation (Duct of Cuvier) of 48 hpf zebrafish embryos to assay the proliferation in vivo of the cells exposed to JHOR11 (80 μM). JHOR11 was dissolved in the embryo water at 1 dpi (days post-injection) for the embryos to recover from the injection and the establishment of the cancer cells in the caudal hematopoietic tissue (CHT), and was maintained until the end of the experiment at 4 dpi. Imaging of the embryos was performed at 1 dpi and 4 dpi to quantify the fluorescence and area of the cells in the tail of the embryos, where cells invade and grow, and measure their proliferation over time to assess the inhibitory effect of JHOR11 over the cells. […]\nThe images were obtained with an AZ-100 Nikon fluorescence stereomicroscope at two different times ([…]) allowing in vivo monitoring of the proliferating HCT116 cells labelled within the zebrafish embryo. The analysis of the cell progression was carried out using Quantifish Software. This software analyzes each image by measuring its fluorescence above a manually set threshold that produces the integrated intensity of each image as the output. […]"}, "[3]": {"system": "normal human dermal fibroblasts", "assay": "Wound scratch assay", "assay_type": "cell-based", "conditions": "24 h, IC50 of the complex, versus vector control", "procedure": "Cell migration is an essential process for tumor progression, being one of the major events that leads to cancer metastasis. To determine if JHOR11 inhibits cell tumorigenicity, the cell migration ability was analyzed by the wound scratch assay. […] The measure of the wound scratch after 0 h and 24 h allows the determination of the migration ability of the cells.\nFor wound scratch assay normal human dermal fibroblasts were seeded on […] tissue plates in a cell density of 4 × 10^5 cells/plate and incubated at 37 °C, 5% (v/v), 99% (v/v) relative humidity until reach confluence. A sterile micropipette tip was then used to make a scratch on the confluent monolayer and medium was replaced by fresh medium supplemented with IC50 JHOR11 or 0.1% (v/v) DMSO, as vector control."}, "A2780 cells [4]": {"system": "A2780 cells", "assay": "Production of reactive oxygen species (H2DCF-DA)", "assay_type": "cell-based, human", "conditions": "A2780, 48 h, IC50 of JHOR11", "procedure": "Since the cytotoxicity of Ru(II) complexes is commonly accompanied by the induction of reactive oxygen species (ROS), the ROS concentration was quantified in A2780 cells exposed for 48 h to IC50 concentration of JHOR11, using DMSO 0.1% (v/v) as a vehicle control, and 3.5 µM cisplatin and 25 µM hydrogen peroxide (H2O2) as positive controls. The incubation with the dye 2′,7′-dichlorodihydrofluorescein diacetate (H2DCF-DA) that, in the presence of peroxides, emits green fluorescence after oxidation to 2′,7′-dichlorofluorescein (DCF), followed by fluorescence quantification by flow cytometry, allowed us to infer the induction of ROS.\nThe production of ROS was evaluated using the dye 2′,7′-dichlorodihydrofluorescein diacetate (H2DCF-DA, ThermoFisher Scientific) according to previously described procedures. […] The fluorescence was quantified in an Attune acoustic focusing cytometer and respective software (Thermo Fisher Scientific) and normalized to the fluorescence of vector control sample."}, "A2780 cells [5]": {"system": "A2780 cells", "assay": "Mitochondrial membrane potential (JC-1)", "assay_type": "cell-based, human", "conditions": "A2780, 48 h, IC50 of JHOR11, relative to vehicle control", "source_text": "This dye accumulates in the mitochondria of cells, presenting red fluorescence, characteristic of the aggregated form (JC-1 aggregated), in healthy cells, and green fluorescence, characteristic of monomer form (JC-1 monomer), when the mitochondrial membrane is compromised.\nThe mitochondrial potential was quantified using the JC-1 mitochondrial membrane potential assay kit (Abnova, Taipé, Taiwan) according to manufacturer’s instructions and as previously described. Briefly, 2 × 10^5 A2780 cells were seeded on each well of a 6-well plate and incubated for 48 h with IC50 JHOR11, 0.1% (v/v) DMSO or 3.5 µM cisplatin. Cells with red (JC-1 aggregated) and green (JC-1 monomer) fluorescence were quantified with an Attune acoustic focusing flow cytometer and respective software (Thermo Fisher Scientific), and fluorescence ratios normalized to control samples incubated with DMSO."}},
  "data": [
    {"smiles": "Cc1ccc(C(C)C)cc1.F[P-](F)(F)(F)(F)F.O=C1C(=O)c2cccnc2-c2ncccc21.[Cl][Ru+]", "note": "[JHOR11]", "values": [
      {"measurement": "percentage of apoptotic cells", "setting": "A2780 cells [1]", "result": 3, "unit": "%"},
      {"measurement": "decrease of proliferation of HCT116 cells compared to control", "setting": "[2]", "result": 45, "unit": "%"},
      {"measurement": "percentage of regeneration of the wound scratch", "setting": "[3]", "result": "no significant differences"},
      {"measurement": "increase in intracellular ROS relative to vector control", "setting": "A2780 cells [4]", "result": "1.72 ± 0.4", "unit": "times"},
      {"measurement": "JC-1 monomer/aggregate fluorescence ratio", "setting": "A2780 cells [5]", "result": "decrease in the monomer/aggregate fluorescence ratio (but with no statistical significance)"}
    ]}
  ]
}
